Results: patent US20050032866A1, “The use of 5ht4 receptor antagonists in the prophylaxis or treatment of certain cardiovascular conditions” (priority 2000, published 2005)
Where “and” joins values, the source holds several entries; their conditions need not be identical. Equal entries are not always repeated.

Experiments:
[1] = tested on: 5-HT-induced atrial arrhythmia in anesthetized Yucatan minipigs; test: 5-HT-induced atrial fibrillation / atrial remodelling after rapid atrial pacing in anesthetized Yucatan minipigs; type: in vivo, Yucatan minipig; settings: for AERP (Example 2): sensitized pigs, predrug 90±3; for AF inducibility: 64±6% prior to treatment, 10 bursts of pacing; for mean duration of AF episodes: pre-drug 1.9±0.4
Method: The antiarrhythmic efficacy of SB-207266 (0.3 and 1.0 mg/kg, intravenous) was evaluated on the inducibility of AF in a model of 5-HT-induced atrial arrhythmia in anesthetized Yucatan minipigs. […] The atrial effective refractory period (AERP) and AF inducibility were determined during programmed stimulation and burst electrical pacing.
Animals. Male Yucatan minipigs (12-17 kg weight) were obtained from Charles River (Saint-Aubin les Elboeuf, France) and were maintained at rest over a 2-week acclimatision period prior to experiments.
Surgical Preparation of Animals. The minipigs (Charles River, France) were fasted and premedicated (2 mg/kg diazepam+15 mg/kg ketamine, i.m.) before induction of anesthesia by isoflurane inhalation (5% for induction followed by 0.5 to 1.5% for technical preparation) in a mixture of 25% O2 and 75% N2O. The long term anesthesia was maintained with an i.v. infusion of sodium pentobarbital (12 mg/kg/h). A mechanical ventilator (Harvard pump 613) was used to provide artificial respiration during the left thoracotomy in order to keep arterial blood gases and pH within the normal limits (ABL 500 analyzer). Fluid filled catheters were placed in the femoral artery and vein to measure the arterial pressure (P23 ID transducer) and for drug administrations, respectively. Leads II, III and a precordial lead of electrocardiogram were placed for monitoring of standard ECG parameters. Two pairs of electrodes were hooked to the left atrial wall for subsequent stimulation (S8800 stimulator and SIU-5 unit) and for measurement of an atrial electrogram.
Sensitization of the Atrial Tissue. The left atrial appendage was sensitized by rapid atrial pacing (200 ms cycle length over 3 hours) to generate an initial electrical remodelling of the tissue [A. Goette et al., 1996, Circulation, 94, 2968-2974]. […] The cellulose patch retains the 5-HT in contact with the tissue.
Electrophysiologic Study. The atrial effective refractory period (AERP) was determined using a conventional single extrastimulus technique as previously described [A. Bril, B. Gout et al., J. Pharmacol. Exp. Ther., 1996, 276, 637-646.]. Briefly, a 8-stimulus train at a basic cycle length 20% shorter than the sinus rhythm was followed by a single premature extrastimulus (4 ms, 1.5 times threshold current) introduced at progressively shorter coupling intervals from the atrial pacing until no atrial response was obtained.
After determination of AERP, the atrial fibrillation (AF) challenge was started. AF was induced following atrial pacing by a 2 sec-burst of stimulation (basic cycle length 20 ms cycle length, 2 ms duration, twice the diastolic threshold) introduced within the vulnerable window (AERP+10 ms). AF was defined as at least 1 sec of irregular electrical activity measured on atrial electrogram.
Study Design and Dosing. After assessment of reproducible baseline responses of animals (3 successive AF challenges), the minipigs were randomly assigned to receive either sterile distilled water (vehicle group, n=7), or escalating doses of SB-207266 (0.3 and 1.0 mg/kg, n=7) given i.v. over a 10 min period 15 min before determination of AERP and subsequent AF challenge. SB-207266 was dissolved in sterile distilled water and adequate drug solutions were prepared every day. Treatment with vehicle represented a volume of distilled water similar to that used for drug solution (10 ml). Each dose of SB-207266 was administered at 45 min intervals to allow recovery of animals from previous burst pacing challenge.
Measurements and Calculations. All parameters were monitored on a chart paper polyrecorder (TA-5000) and digital recording was performed throughout the protocol (DTR 1800). When measured, heart rate was calculated from the ECG and the mean arterial blood pressure was calculated from the pulse pressure. A corrected QT was determined according to the Bazett's formula (QTc=QT (ms)/RR (sec)^1/2). […]

[2] = tested on: 5-HT-induced atrial arrhythmia in anesthetized Yucatan minipigs; test: as above; type: in vivo, Yucatan minipig; settings: 5-HT alone, topical application for 3 hours, no pacing; control 110.2±1.9; not significant; n=6
5-HT3A receptors = 5-HT3A receptors (Homo sapiens, UniProt P46098); settings: cited from earlier work
Chain of 5-HT3A receptors (P46098 24-478): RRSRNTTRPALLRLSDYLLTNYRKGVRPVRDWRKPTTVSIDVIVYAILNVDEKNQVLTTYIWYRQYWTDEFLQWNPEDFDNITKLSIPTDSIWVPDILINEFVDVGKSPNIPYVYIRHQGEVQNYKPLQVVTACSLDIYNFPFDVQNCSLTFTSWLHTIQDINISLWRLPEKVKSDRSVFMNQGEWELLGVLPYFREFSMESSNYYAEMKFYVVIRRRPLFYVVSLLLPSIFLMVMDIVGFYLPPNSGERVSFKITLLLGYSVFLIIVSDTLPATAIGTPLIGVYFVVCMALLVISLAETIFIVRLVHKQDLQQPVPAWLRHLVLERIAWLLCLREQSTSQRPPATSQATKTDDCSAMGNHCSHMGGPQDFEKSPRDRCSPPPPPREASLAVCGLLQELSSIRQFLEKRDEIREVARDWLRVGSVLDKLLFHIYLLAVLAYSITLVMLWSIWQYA

5-HT4A receptors = 5-HT4A receptors (Homo sapiens, UniProt Q13639); settings: cited from earlier work
Chain of 5-HT4A receptors (Q13639 1-387 isoform Q13639-2): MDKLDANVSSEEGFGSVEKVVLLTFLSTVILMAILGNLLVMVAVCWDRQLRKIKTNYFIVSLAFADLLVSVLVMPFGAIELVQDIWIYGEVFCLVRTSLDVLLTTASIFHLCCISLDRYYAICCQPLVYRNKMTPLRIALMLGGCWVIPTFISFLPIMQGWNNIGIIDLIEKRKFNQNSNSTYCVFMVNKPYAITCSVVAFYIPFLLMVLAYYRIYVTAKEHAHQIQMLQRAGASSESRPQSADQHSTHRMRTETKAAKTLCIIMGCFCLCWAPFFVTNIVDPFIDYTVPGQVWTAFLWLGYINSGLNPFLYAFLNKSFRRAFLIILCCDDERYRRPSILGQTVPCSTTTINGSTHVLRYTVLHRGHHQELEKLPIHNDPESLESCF

5-HT4B receptor = 5-HT4B receptor (Homo sapiens, UniProt Q13639); test: 5-HT4B receptor antagonism; type: biochemical
Chain of 5-HT4B receptor (Q13639 whole entry): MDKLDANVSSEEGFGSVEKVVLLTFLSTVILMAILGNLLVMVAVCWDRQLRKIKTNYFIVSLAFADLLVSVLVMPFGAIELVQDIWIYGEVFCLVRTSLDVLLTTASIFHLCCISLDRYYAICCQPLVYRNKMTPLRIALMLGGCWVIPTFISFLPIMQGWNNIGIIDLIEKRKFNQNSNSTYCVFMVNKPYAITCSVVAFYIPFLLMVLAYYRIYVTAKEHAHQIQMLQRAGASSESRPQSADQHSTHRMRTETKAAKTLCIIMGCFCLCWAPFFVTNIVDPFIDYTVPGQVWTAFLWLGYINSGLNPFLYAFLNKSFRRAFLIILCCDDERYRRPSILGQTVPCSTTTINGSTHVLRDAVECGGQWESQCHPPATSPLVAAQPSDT

[3] = plasma concentration of SB-207266 in minipig (LC/MS/MS); type: in vivo, Yucatan minipig; settings: 5 min after end of bolus
Method: Evaluation of Plasma Concentration of SB-207266. For each AF challenge, blood samples were collected on EDTA (6%) 5 min after the end of the bolus administration of drug (time point 15 min, see asterisks in FIG. 4A) and centrifuged (1500×g, 10 min at 4° C.). The plasma samples were stored at −80° C. for subsequent analysis. Plasma samples were not collected in the vehicle group. The determination of plasma concentration of SB-207266 was performed by LC/MS/MS with a LLQ for this assay of 5 ng/ml in the pig.

[4] = plasma pharmacokinetics of SB 207266 on once daily oral dosing; type: in vivo, human
[5] = preliminary studies of side-effects at human daily oral doses; type: in vivo; settings: corresponds to about 1.6 to 1.7 mg/kg/day or more
5-HT4 receptor = molecular target: T1, 5-HT4 receptor (Cavia porcellus, UniProt O70528); test: guinea pig distal colon longitudinal muscle-myenteric plexus, 5-HT-evoked contraction; type: cell-based
T1 construct: Longitudinal muscle-myenteric plexus preparations, approximately 3 cm long, are obtained from the distal colon region; from tissue; host or cells: guinea-pig distal colon longitudinal muscle-myenteric plexus
T1 sequence (O70528 whole entry): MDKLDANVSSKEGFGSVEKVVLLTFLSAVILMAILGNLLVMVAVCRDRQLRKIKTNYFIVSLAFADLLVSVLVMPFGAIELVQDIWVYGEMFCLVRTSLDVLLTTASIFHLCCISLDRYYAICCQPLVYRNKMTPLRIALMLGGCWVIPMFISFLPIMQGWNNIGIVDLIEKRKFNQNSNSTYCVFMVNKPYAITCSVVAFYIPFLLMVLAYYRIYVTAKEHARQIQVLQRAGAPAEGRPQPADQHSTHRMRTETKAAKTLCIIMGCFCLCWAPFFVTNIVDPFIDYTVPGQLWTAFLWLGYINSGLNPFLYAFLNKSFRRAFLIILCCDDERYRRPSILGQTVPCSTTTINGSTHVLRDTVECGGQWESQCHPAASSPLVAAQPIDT
Method: Male guinea-pigs, weighing 250-400 g are used.
In some experiments, this tissue was dosed alternately with an approximately equi-effective concentration of the nicotine receptor stimulant, dimethylphenylpiperazinium (DMPP).

5-HT1C = 5-HT1C (Homo sapiens, UniProt P28335); test: radioligand selectivity, 5-HT1C receptors; type: binding; settings: read-out: pKi at 5-HT1C (converted)
Chain of 5-HT1C (P28335 33-458, species assumed): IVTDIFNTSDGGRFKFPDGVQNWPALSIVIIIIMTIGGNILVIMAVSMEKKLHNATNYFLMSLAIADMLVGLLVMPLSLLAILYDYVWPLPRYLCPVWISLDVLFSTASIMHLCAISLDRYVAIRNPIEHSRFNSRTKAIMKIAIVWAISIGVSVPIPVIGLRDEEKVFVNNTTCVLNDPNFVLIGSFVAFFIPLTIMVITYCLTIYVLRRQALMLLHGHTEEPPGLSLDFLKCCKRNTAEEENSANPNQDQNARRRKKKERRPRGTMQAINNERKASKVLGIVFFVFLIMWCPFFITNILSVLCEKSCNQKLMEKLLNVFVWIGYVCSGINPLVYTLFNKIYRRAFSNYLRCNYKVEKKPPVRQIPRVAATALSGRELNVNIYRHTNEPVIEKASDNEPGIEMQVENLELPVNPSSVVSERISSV

5-HT1A = 5-HT1A (Homo sapiens, UniProt P08908); test: radioligand selectivity, 5-HT1A receptors; type: binding; settings: read-out: pKi at 5-HT1A (converted)
Chain of 5-HT1A (P08908 whole entry, species assumed): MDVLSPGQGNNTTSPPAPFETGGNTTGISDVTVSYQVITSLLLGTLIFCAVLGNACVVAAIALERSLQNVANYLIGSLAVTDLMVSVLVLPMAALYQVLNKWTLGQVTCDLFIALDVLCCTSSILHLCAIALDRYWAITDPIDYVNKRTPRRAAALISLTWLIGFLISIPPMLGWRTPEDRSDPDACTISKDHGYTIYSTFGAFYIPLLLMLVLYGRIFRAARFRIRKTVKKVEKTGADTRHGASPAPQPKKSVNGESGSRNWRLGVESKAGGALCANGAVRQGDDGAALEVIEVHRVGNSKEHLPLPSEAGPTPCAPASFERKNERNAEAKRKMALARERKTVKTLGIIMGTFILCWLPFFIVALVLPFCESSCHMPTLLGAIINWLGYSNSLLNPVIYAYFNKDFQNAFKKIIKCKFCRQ

[6] = molecular target: piglet hippocampal 5-HT4 receptors (Sus scrofa, UniProt Q6Q253); test: binding to piglet hippocampal 5-HT4 receptors, 125I-labelled SB-207710; settings: piglet hippocampal membranes, n=4
Chain of piglet hippocampal 5-HT4 receptors (Q6Q253 1-402): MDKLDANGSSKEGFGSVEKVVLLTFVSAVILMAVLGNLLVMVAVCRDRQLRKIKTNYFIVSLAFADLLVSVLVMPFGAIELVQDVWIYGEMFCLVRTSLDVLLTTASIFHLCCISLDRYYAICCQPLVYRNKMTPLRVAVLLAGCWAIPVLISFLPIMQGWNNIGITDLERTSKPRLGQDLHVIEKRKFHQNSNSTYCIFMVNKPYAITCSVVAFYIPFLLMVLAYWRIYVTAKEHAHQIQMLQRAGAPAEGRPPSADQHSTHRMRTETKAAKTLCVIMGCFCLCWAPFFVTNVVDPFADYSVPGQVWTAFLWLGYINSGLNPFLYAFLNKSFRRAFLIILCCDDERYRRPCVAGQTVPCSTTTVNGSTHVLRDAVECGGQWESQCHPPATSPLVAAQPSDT

## NCCc1c[nH]c2ccc(O)cc12 [5-HT, reference compound]
[1]; 5-HT applied after 3 h rapid atrial pacing, pacing alone 93.6±3.6
  AERP: 91.8 ± 3.3 ms
[1]; rapid atrial pacing and application of 5-HT, before vehicle or drug, from 111.6±2.6
  AERP (Example 1): 90.9 ± 2.1 ms
[2]
  AERP: 104.0 ± 6.5 ms

## COc1[nH]c2ccc(F)cc2c1C(=O)OCC1CCN(CCNS(C)(=O)=O)CC1 [GR 125487, [1-[2-[(Methylsulphonyl)amino]ethyl]-4-piperidinyl]methyl 5-fluoro-2-methoxy-1H-indole-3-carboxylate]
5-HT3A receptors
  pKi at 5-HT3A receptors: < 6.5
5-HT4A receptors
  pKi at 5-HT4A receptors: 10.0

## Cc1noc(-c2ccccc2NC(=O)OCC2CCN(CCNS(C)(=O)=O)CC2)n1 [GR 138897, [1-[2-[(Methylsulphonyl)amino]ethyl]-4-piperidinyl]methyl[2-(3-methyl-1,2,4-oxadiazol-5-yl)phenyl]carbamate]
5-HT3A receptors
  pKi at 5-HT3A receptors: < 5.0
5-HT4A receptors
  pKi at 5-HT4A receptors: 10.3

## CCCCN1CCC(CNC(=O)c2c3n(c4ccccc24)CCCO3)CC1 [SB 207266, N-[(1-^nbutyl-4-piperidinyl)methyl]-3,4-dihydro-2H-[1,3]oxazino[3,2-a]indole-10-carboxamide]
5-HT4B receptor
  5-HT4B receptor antagonism: 5-HT4B antagonist and found to antagonise 5HT4B receptors
[3]; 0.3 mg/kg i.v., n=6
  plasma level of SB-207266: 137.7 ± 15.2 ng/mL
[3]; 1.0 mg/kg i.v., n=5
  plasma level of SB-207266: 562.3 ± 40.1 ng/mL
[4]; human, plasma, oral, read-out: elimination half-life T½
  half-life: 20 to 24 h
[4]; once daily dosing
  time to reach steady-state plasma concentrations: 4 to 5 days
[4]; once daily dosing, day 4
  plasma concentration on day 4 as share of the steady-state plasma concentration: about 90%
[4]; once daily oral dosing
  extent of accumulation: approximately 1.5 fold
[5]
  human daily oral dose that might give rise to certain side-effects: ≥ 120 mg
[1]; 0.3 mg/kg i.v., after pacing and 5-HT, pre-drug 90.0±2.7, p<0.01 vs vehicle
  AERP (Example 1): 102.3 ± 2.7 ms
[1]; 0.3 mg/kg i.v.
  AERP (Example 2): 102 ± 3 ms
  AF inducibility: 46±11%
  mean duration of AF episodes: 1.1 ± 0.4 s and 1.1 ± 0.2 s
[1]; 1.0 mg/kg i.v.
  decrease in AERP caused by rapid atrial pacing plus 5-HT application: fully restored
  AERP (Example 2): 110 ± 4 ms
  AF inducibility: 30±9%
  mean duration of AF episodes: No further reduction
[1]; 1.0 mg/kg i.v., after pacing and 5-HT, pre-drug 90.0±2.7, p<0.01 vs vehicle
  AERP (Example 1): 110.0 ± 3.6 ms
5-HT4 receptor
  5-HT4 receptor antagonist activity in guinea pig colon: particularly good activity

## CCCCN1CCC(COC(=O)c2cc(I)c(N)c3c2OCCO3)CC1 [SB-207710, (1-butyl-4-piperidyl)methyl 8-amino-7-iodo-1,4-benzodioxan-5-carboxylate]
5-HT1C
  Ki: ≥ 1000 nM
5-HT1A
  Ki: ≥ 1000 nM
[6]
  Bmax of radioligand: 16±3 fmol/mg protein
